Experimental data as given in BindingDB's records for doi:10.1016/j.bmc.2007.01.046 (University of Tokyo, 2007).

Target: T1, Bile acid receptor (Homo sapiens, UniProt Q96RI1)
T1 sequence (Q96RI1 whole entry): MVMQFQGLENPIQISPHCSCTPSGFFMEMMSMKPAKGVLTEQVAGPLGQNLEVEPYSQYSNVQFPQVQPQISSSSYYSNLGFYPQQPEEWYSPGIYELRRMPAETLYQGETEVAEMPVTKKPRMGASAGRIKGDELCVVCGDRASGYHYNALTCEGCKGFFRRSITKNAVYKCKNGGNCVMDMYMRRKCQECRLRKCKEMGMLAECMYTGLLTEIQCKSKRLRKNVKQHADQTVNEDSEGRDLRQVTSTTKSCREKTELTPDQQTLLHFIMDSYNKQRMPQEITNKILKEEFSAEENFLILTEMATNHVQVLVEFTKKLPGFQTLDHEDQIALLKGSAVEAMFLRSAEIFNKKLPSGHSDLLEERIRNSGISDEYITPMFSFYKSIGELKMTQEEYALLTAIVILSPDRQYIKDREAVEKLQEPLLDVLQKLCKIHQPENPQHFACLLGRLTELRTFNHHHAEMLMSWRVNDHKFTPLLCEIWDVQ
Assay: Cotransfection Assay
Details: pH 7.2; 37 °C

SMILES | EC50 [µM]
O=C(O)c1cccc(/C=C/c2ccc(OCc3c(-c4c(Cl)cccc4Cl)noc3-c3ccc(-c4ccccc4)cc3)cc2Cl)c1 [3-[(E)-2-(2-chloro-4-{[3-(2,6-dichlorophenyl)-5-(4-phenylphenyl)-1,2-oxazol-4-yl]methoxy}phenyl)ethenyl]benzoic acid] | 33.9
O=C(O)c1cccc(/C=C/c2ccc(OCc3c(-c4c(Cl)cccc4Cl)noc3-c3ccc4ccccc4c3)cc2Cl)c1 [3-[(E)-2-(2-chloro-4-{[3-(2,6-dichlorophenyl)-5-(naphthalen-2-yl)-1,2-oxazol-4-yl]methoxy}phenyl)ethenyl]benzoic acid] | 22.2
O=C(O)c1cccc(/C=C/c2ccc(OCc3c(-c4c(Cl)cccc4Cl)noc3-c3ccccc3)cc2Cl)c1 [3-[(E)-2-(2-chloro-4-{[3-(2,6-dichlorophenyl)-5-phenyl-1,2-oxazol-4-yl]methoxy}phenyl)ethenyl]benzoic acid] | 15.8

Continued, values first:

EC50 [µM] | SMILES
3.7 | O=C(O)c1cccc(NC(=O)c2ccc(OCc3c(-c4c(Cl)cccc4Cl)noc3-c3ccc(-c4ccccc4)cc3)cc2Cl)c1 [3-[(2-chloro-4-{[3-(2,6-dichlorophenyl)-5-(4-phenylphenyl)-1,2-oxazol-4-yl]methoxy}benzene)amido]benzoic acid]
4 | O=C(O)c1cccc(NC(=O)c2ccc(OCc3c(-c4c(Cl)cccc4Cl)noc3-c3ccc4ccccc4c3)cc2Cl)c1 [3-[(2-chloro-4-{[3-(2,6-dichlorophenyl)-5-(naphthalen-2-yl)-1,2-oxazol-4-yl]methoxy}benzene)amido]benzoic acid]
